Here are results for 22 compounds from patent US9115083B2 (Simpson Biotech Co., Ltd, priority 2011, dated 2015).

The target in one assay is HIV-1 protease (Human immunodeficiency virus type 1 group M subtype B (isolate HXB2) (HIV-1), UniProt P04585). In words: HIV-1 protease inhibition assay (HPLC of hydrolysis product). Type of assay: biochemical. As to the method:
HIV was a retrovirus with a single-stranded RNA genome. HIV protease was an important enzyme for replication. Translated proteins in the host cell were out into the desired shape by the enzyme. The substance was a protein dimer consisting of 99 amino acids, and the active center was Asp residues.
In this assay, oligopeptide (His-Lys-Ala-Arg-Val-Leu-Phe(NO2)-Glu-Ala-NLe-Ser-NH2) with strengthened absorbance was prepared as a substrate, in which para site of […] was modified by nitro. The substrate was incubated in the presence of HIV-1 protease and the test samples. Generation ratio of hydrolysis product (Phe (NO2)-Glu-Ala-NLe-Ser-NH2) was analyzed by HPLC, and the HIV-1 inhibitory activity in test sample was detected (Y. Wei, C. M. Ma, D. Y. Chen and M. Hattori: Anti-HIV-1 Protease Triterpenoids from Stauntonia Obovatifoloala Hayata Subsp. Phytochemistry, 69, 1875-1879, 2008). In this assay, pepsatatin A was used as a positive control.

In assay [1] the target is dipeptidyl peptidase-IV (DPPIV) (Homo sapiens (Human), UniProt P27487). In words: dipeptidyl peptidase-IV (DPPIV) assay. The class given is biochemical. An excerpt:
In addition, the dipeptidyl peptidase-IV (DPPIV) assay herein was applied to investigate the DPPIV inhibitory activity of the prepared compounds as described above. The method of the DPPIV assay was described in Lin et al., 1998. Inhibition of dipeptidyl peptidase IV by fluoroolefin-containing N-peptidyl-O-hydroxylamine peptidomimetics. Proc. Natl. Acad. Sci. USA Vol. 95, pp. 14020-14024.

The target of the next assay is NS3/4A HCV protease (Hepatitis C virus genotype 1a (isolate H77) (HCV), UniProt P27958). Nature of the assay: NS3/4A HCV protease inhibition assay. To be noted: read-out: NS3/4A HCV protease inhibitive activity IC50. The class given is biochemical. As to the method:
When sensitive cells were infected with HCV virus, some precursor proteins were translated from uncoated virus RNA in the cytoplasm. According to the protease, the precursor proteins were processed into different viral proteins. Among viral proteins, NS3, a serine protease and RNA helicase, was an important non-structural protein involved in virus protein maturation and virus genome replication.
In this assay, protein (FRET) was prepared and modified with fluorescent protein 5-FAM as a substrate and QXL™520 as a quencher. The substrate was incubated with NS3/4A HCV protease and testing samples, and the fluorescence intensity was measured, according to the mechanism shown in FIG. 7 (C. M. Ma, Yo Wei, Z. G. Wang and M. Hattori: Triterpenes from Cynomorium Songaricium-analysis of HCV Protease Inhibitory Activity, Quantification and Content Change Under the Influence of Heating. J. Nat. Med., 63, 9-14, 2009). In this assay, HCV NS3 Protease Inhibitor 2 was used as positive control.

The next assay concerns the target HCV NS3/4A protease (Hepatitis C virus genotype 1a (isolate H77) (HCV), UniProt P27958). In words: HCV protease assay (fluorimetric, FRET substrate). The class given is biochemical. An excerpt:
The HCV protease assay herein was applied to investigate the HCV-protease inhibitory activity of the prepared compounds as described above. The method of the HCV protease assay was described in D. T. Phuong, C. M. Ma, M. Hattori and J. S. Jin: Inhibitory Effects of Antrodins A-E from Antrodia cinnamomea and Their Metabolites on Hepatitis C Virus Protease. Phytotherapy Research, 23, 582-584, 2009. Two micro liters of a compound solution (using DMSO as solvent) was placed in 384 well micro plate, then 8 μl of HCV NS3/4A protease ([…]) was added to the well containing a sample and the plate was agitated. Finally, 10 μL of freshly prepared substrate (Ac-Asp-Glu-Dap(QXL™520)-Glu-Glu-Abu-COO-Ala-Ser-Cys(5-FAMsp)-NH2) (100× dilution of a DMSO stock solution) was added with sequential rotational shaking. The reaction mixture was incubated for 30 min at 37° C. The fluorimetric analyses were performed on an automated TECAN GENios plate reader with excitation wavelength at 485 nm and emission 530 nm. Each test compound was carried out in triplicate. The HCV—PR inhibition (%) was calculated by using the following equation: % inhibition=(Fvehicle control−[…])×100/Fvehicle control (Where F is the fluorescence value of vehicle control or of sample minus the fluorescence of the substrate control).

In a further assay the target is HCV protease (Hepatitis C virus genotype 1a (isolate H77) (HCV), UniProt P27958). As to conditions: from PCT publication No. WO 2009/094807, cited from earlier work; for IC50: read-out: anti HCV activity.
Sequence of HCV protease (P27958 1027-1657): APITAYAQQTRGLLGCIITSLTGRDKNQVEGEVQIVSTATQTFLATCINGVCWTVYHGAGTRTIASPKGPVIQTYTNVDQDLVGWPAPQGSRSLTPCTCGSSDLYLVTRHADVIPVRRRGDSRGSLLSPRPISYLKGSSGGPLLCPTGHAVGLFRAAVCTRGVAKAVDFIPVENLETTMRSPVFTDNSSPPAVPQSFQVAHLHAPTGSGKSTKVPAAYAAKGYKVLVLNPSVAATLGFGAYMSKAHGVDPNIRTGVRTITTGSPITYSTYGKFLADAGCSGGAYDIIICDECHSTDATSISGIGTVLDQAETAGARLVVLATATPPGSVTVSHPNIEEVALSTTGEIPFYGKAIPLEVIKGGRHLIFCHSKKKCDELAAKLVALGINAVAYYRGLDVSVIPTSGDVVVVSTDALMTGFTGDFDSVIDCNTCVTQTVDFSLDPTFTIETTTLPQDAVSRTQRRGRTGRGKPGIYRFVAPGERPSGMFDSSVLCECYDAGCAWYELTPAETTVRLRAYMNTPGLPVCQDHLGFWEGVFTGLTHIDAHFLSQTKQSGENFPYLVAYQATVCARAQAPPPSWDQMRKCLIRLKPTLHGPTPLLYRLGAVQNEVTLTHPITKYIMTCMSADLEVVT
Sequence of HCV protease (P27958 1658-1711 partner): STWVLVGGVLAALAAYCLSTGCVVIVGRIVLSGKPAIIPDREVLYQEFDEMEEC
Assay [2] has as its system Propionicbacterium acnes and lipopolysaccharide treated mice. To be noted: cited from earlier work.
Where [3] appears, read: read-out: HIV-1 protease inhibitive activity IC50.
[4] abbreviates: Table 10, second scaffold, read-out: IC50 against DPPIV (converted).
The mark [5] stands for this setting: Table 10, first scaffold, read-out: IC50 against DPPIV (converted).
The mark [6] stands for this setting: HCV NS3/4A protease, 30 min at 37° C., triplicate, read-out: IC50 against HCV protease.

Each structure is given as a SMILES string. Values joined by “and” are separate entries in the source; they are usually repeats but may differ in a detail not shown here. Equal values may be shown once. Read-outs that look alike come from different tables or passages of the source.

Sequence of HCV NS3/4A protease (P27958 1027-1657): as the sequence (P27958 1027-1657) above
Sequence of HCV NS3/4A protease (P27958 1658-1711 partner): as the sequence (P27958 1658-1711 partner) above
Sequence of dipeptidyl peptidase-IV (DPPIV) (P27487 whole entry, species assumed): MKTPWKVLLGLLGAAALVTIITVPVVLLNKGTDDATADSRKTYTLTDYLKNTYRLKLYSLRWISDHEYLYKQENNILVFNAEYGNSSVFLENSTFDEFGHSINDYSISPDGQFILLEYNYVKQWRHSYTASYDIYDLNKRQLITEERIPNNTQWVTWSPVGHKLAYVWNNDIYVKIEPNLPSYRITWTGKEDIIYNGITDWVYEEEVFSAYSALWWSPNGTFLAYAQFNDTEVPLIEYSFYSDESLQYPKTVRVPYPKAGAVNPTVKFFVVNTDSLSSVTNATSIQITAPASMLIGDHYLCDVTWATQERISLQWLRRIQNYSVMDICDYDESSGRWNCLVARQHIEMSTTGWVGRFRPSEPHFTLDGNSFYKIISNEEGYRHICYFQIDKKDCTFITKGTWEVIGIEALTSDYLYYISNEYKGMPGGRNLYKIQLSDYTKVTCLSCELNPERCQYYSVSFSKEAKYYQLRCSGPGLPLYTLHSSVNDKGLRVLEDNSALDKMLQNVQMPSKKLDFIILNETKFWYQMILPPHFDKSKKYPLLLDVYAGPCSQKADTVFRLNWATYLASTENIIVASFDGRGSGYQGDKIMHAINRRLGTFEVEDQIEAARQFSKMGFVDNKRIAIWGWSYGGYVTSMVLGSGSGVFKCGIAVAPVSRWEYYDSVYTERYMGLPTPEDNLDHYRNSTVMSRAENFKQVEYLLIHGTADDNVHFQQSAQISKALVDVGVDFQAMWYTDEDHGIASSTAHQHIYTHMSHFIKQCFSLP
Sequence of NS3/4A HCV protease (P27958 1027-1657): as the sequence (P27958 1027-1657) above
Sequence of NS3/4A HCV protease (P27958 1658-1711 partner): as the sequence (P27958 1658-1711 partner) above

`CC(C)=CCOc1ccc([C@@H]2C(=O)N(O)C(=O)[C@@H]2CC(C)C)cc1` (relative stereo) [Compound 5, (3R*,4R*)-1-hydroxy-3-isobutyl-4-[4-(3-methyl-2-butenyloxy)phenyl]pyrrolidine-2,5-dione]: the IC50 on HIV-1 protease (setting [3]) stood at 198 µM.

For the compound `CC(C)CC1C(=O)N(C(CO)C(=O)N2CCC[C@H]2C(=O)O)C(=O)C1c1ccc(O)cc1` (stereo partly drawn) [Compound A3-15], in assay [1] (setting [4]), the IC50 was 85 µM.

In the case of `CC(C)=CCOc1ccc(C2C(=O)N(O)C(=O)/C2=C\C(C)C)cc1` (stereo not drawn) [Compound of formula (XIII)], the IC50 on NS3/4A HCV protease came to 8.7 µM; on HIV-1 protease (setting [3]), 16.6 µM.

For `CC(C)CC1C(=O)N(C(CO)C(=O)O)C(=O)C1c1ccc(O)cc1` (stereo not drawn) [Compound A3-t], in assay [1] (setting [4]), the IC50 is 70 µM.

As to `CC(C)CC1C(=O)N(C(Cc2ccccc2)C(=O)O)C(=O)C1c1ccc(O)cc1` (stereo not drawn) [Compound A2-t], the IC50 in assay [1] (setting [4]) is 90 µM.

`CC(C)CC1C(=O)N(C(CC(C)C)C(=O)N2CCC[C@H]2C(=O)O)C(=O)C1c1ccc(O)cc1` (stereo partly drawn) [Compound A1-9]: the IC50 in assay [1] (setting [4]) was 29 µM.

Take `CC(C)=CCOc1ccc(C2=C(CC(C)C)C(=O)N(C(CO)C(=O)O)C2=O)cc1` (stereo not drawn) [Compound A3, 3-Hydroxy-2-(3-isobutyl-4-(4-(3-methylbut-2-enyloxy)phenyl)-2,5-dioxo-2,5-dihydro-1H-pyrrol-1-yl)propanoic acid]: the IC50 is 99.6 µM in assay [1] (setting [5]) and 27 µM against HCV NS3/4A protease.

On to `COC(=O)[C@@H]1CCCN1C(=O)C(CC(C)C)N1C(=O)C(CC(C)C)=C(c2ccc(OCC=C(C)C)cc2)C1=O` (stereo partly drawn) [Compound A1-5], for which the IC50 in assay [1] (IC50 against DPPIV, Table 10, first scaffold) is > 186 µM and 65 µM.

Consider `CC(C)=CCOc1ccc(C2=C(CC(C)C)C(=O)N(C(CC(C)C)C(=O)O)C2=O)cc1` (stereo not drawn) [Compound A1, 2-(3-Isobutyl-4-(4-(3-methylbut-2-enyloxy)phenyl)-2,5-dioxo-2,5-dihydro-1H-pyrrol-1-yl)-4-methylpentanoic acid], for which the IC50 is 105 µM in assay [1] (setting [5]) and 8.6 µM against HCV NS3/4A protease.

On to `CC(C)=CCOc1ccc(C2=C(CC(C)C)C(=O)NC2=O)cc1` [Compound 2, 3-isobutyl-4-[4-(3-methyl-2-butenyloxy)phenyl]-1H-pyrrol-2,5-dione], for which the figures for the IC50 (in assay [1] (setting [5]); against HIV-1 protease) were 160 µM and 54 µM, respectively. Further, the “anti HCV activity (in words)” value on HCV protease is given as “low activity”.

As for `CC(C)CC1C(=O)N(C(CC(C)C)C(=O)O)C(=O)C1c1ccc(O)cc1` (stereo not drawn) [Compound A1-t], the IC50 in assay [1] (setting [4]) is 75 µM.

Turning to `CC(C)=CCOc1ccc(C2=C(CC(C)C)C(=O)OC2=O)cc1` [Compound 1, 3-isobutyl-4-[4-(3-methyl-2-butenyloxy)phenyl]furan-2,5-dione], the IC50 in assay [1] (setting [5]) is 79.5 µM; at HCV protease it was 2.86 µM; against HIV-1 protease, above 300 µM.

Regarding `CC(C)=CCOc1ccc([C@H]2C(=O)N(O)C(=O)[C@@H]2CC(C)C)cc1` (relative stereo) [Compound 4, (3R*,4S*)-1-hydroxy-3-isobutyl-4-[4-(3-methyl-2-butenyloxy)phenyl]pyrrolidine-2,5-dione], the IC50 on HIV-1 protease (setting [3]) is 4.4 µM.

For the compound `CC(C)CC1C(=O)N(C(Cc2ccccc2)C(=O)N2CCC[C@H]2C(=O)O)C(=O)C1c1ccc(O)cc1` (stereo partly drawn) [Compound A2-14], the IC50 in assay [1] (setting [4]) was 60 µM.

Consider `CC(C)=CCOc1ccc(C2=C(CC(C)C)C(=O)N(C(Cc3ccccc3)C(=O)O)C2=O)cc1` (stereo not drawn) [Compound A2, 2-(3-Isobutyl-4-(4-(3-methylbut-2-enyloxy)phenyl)-2,5-dioxo-2,5-dihydro-1H-pyrrol-1-yl)-3-phenylpropanoic acid], for which the IC50 in assay [1] (setting [5]) is 75.8 µM; against HCV NS3/4A protease, 14 µM.

As to `CC(C)=CCOc1ccc(C2=C(CC(C)C)C(=O)N(CCC(O)C(=O)O)C2=O)cc1` (stereo not drawn) [KB, 2-Hydroxy-4-(3-isobutyl-4-(4-(3-methylbut-2-enyloxy)phenyl)-2,5-dioxo-2,5-dihydro-1H-pyrrol-1-yl)butanoic acid], on HCV NS3/4A protease (setting [6]), the IC50 turned out to be 15.6 µM.

Consider `CC(C)=CCOc1ccc(C2=C(CC(C)C)C(=O)N(C(c3ccccc3)C(O)C(=O)O)C2=O)cc1` (stereo not drawn) [KC, 2-Hydroxy-3-(3-isobutyl-4-(4-(3-methylbut-2-enyloxy)phenyl)-2,5-dioxo-2,5-dihydro-1H-pyrrol-1-yl)-3-phenylpropanoic acid], for which, on HCV NS3/4A protease (setting [6]), the IC50 was found to be 5 µM.

On to `CC(C)=CCOc1ccc(C2=C(CC(C)C)C(=O)N(O)C2=O)cc1` [Compound 3, 3-isobutyl-4-[4-(3-methyl-2-butenyloxy)phenyl]-1H-pyrrol-1-ol-2,5-dione], for which the IC50 in assay [1] (setting [5]) was 115 µM; on HCV protease, 8.8 µM; against HIV-1 protease, 6.5 µM. In addition, in assay [2], the “protective activity in treated mice” value is on record as “protective activity”.

With `CC(C)CC1C(=O)N(CC(=O)C(N)=O)C(=O)C1c1ccc(O)cc1` (stereo not drawn) [KAnh-2], the IC50 on HCV NS3/4A protease (setting [6]) came out at 146 µM.

Turning to `COC(=O)C(CO)NC(=O)C(CC(C)C)N1C(=O)C(CC(C)C)=C(c2ccc(OCC=C(C)C)cc2)C1=O` (stereo not drawn) [Compound A1-3, Methyl 3-hydroxy-2-(2-(3-isobutyl-4-(4-(3-methylbut-2-enyloxy)-phenyl)-2,5-dioxo-2,5-dihydro-1H-pyrrol-1-yl)-4-methylpentanamido)-propanoate], the IC50 at HCV NS3/4A protease (setting [6]) was above 100 µM.

Take `CC(C)=CCOc1ccc(C2=C(CC(C)C)C(=O)N(C(CC(C)C)C(=O)NC3CC3)C2=O)cc1` (stereo not drawn) [Compound A1-6, N-Cyclopropyl-2-(3-isobutyl-4-(4-(3-methylbut-2-enyloxy)phenyl)-2,5-dioxo-2,5-dihydro-1H-pyrrol-1-yl)-4-methylpentanamide]: the IC50 at HCV NS3/4A protease (setting [6]) is above 200 µM.

`CC(C)CC1C(=O)C(C(c2ccccc2)C(O)C(=O)O)C(=O)C1c1ccc(O)cc1` (stereo not drawn) [KC-t]: the IC50 at HCV NS3/4A protease (setting [6]) worked out at 73 µM.
